Source: patent US10206394B2, “Herbicidal compounds” (Syngenta Participations AG, priority 2014, dated 2019)
Where two headings read alike, the source gives them in different places.

Tests used:
Test in all cases: Glasshouse assay for herbicidal activity (pre- and post-emergence), percentage phytotoxicity
Type in all cases: in vivo
[1] = tested on: Echinochloa crus-galli (ECHCG); settings: Echinochloa crus-galli
How it was run: (§1)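 Herbicide was applied to potted plants sown in standard soil, one day after sowing for PRE and after about 12 days for POST. Visual percentage damage ratings followed at 15 DAA (POST) and 20 DAA (PRE).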

Lolium perenne (LOLPE) = settings: Lolium perenne
How it was run: as §1

Avena fatua (AVEFA) = settings: Avena fatua
How it was run: as §1

[2] = tested on: Alopecurus myosuroides (ALOMY); settings: Alopecurus myosuroides
How it was run: as §1

[3] = post-emergence, 360 h, Rate 250 g/ha, post-emergence, visual assessment 15 DAA, 100%=total damage, 0%=no damage, read-out: Post-emergence herbicidal activity (percentage phytotoxicity) ECHCG POST
[4] = pre-emergence, 480 h, Rate 250 g/ha, pre-emergence, visual assessment 20 DAA, 100%=total damage, 0%=no damage, read-out: Pre-emergence herbicidal activity (percentage phytotoxicity) ECHCG PRE
[5] = post-emergence, 360 h, Rate 250 g/ha, post-emergence, visual assessment 15 DAA, 100%=total damage, 0%=no damage, read-out: Post-emergence herbicidal activity (percentage phytotoxicity) LOLPE POST
[6] = pre-emergence, 480 h, Rate 250 g/ha, pre-emergence, visual assessment 20 DAA, 100%=total damage, 0%=no damage, read-out: Pre-emergence herbicidal activity (percentage phytotoxicity) LOLPE PRE
[7] = post-emergence, 360 h, Rate 250 g/ha, post-emergence, visual assessment 15 DAA, 100%=total damage, 0%=no damage, read-out: Post-emergence herbicidal activity (percentage phytotoxicity) AVEFA POST
[8] = pre-emergence, 480 h, Rate 250 g/ha, pre-emergence, visual assessment 20 DAA, 100%=total damage, 0%=no damage, read-out: Pre-emergence herbicidal activity (percentage phytotoxicity) AVEFA PRE
[9] = post-emergence, 360 h, Rate 250 g/ha, post-emergence, visual assessment 15 DAA, 100%=total damage, 0%=no damage, read-out: Post-emergence herbicidal activity (percentage phytotoxicity) ALOMY POST
[10] = pre-emergence, 480 h, Rate 250 g/ha, pre-emergence, visual assessment 20 DAA, 100%=total damage, 0%=no damage, read-out: Pre-emergence herbicidal activity (percentage phytotoxicity) ALOMY PRE
[11] = post-emergence, 360 h, POST-emergence, rate 250 g/ha, visual score 15 DAA (100%=total damage, 0%=no damage), read-out: Post-emergence herbicidal activity (percentage phytotoxicity) ECHCG POST
[12] = pre-emergence, 480 h, PRE-emergence, rate 250 g/ha, visual score 20 DAA (100%=total damage, 0%=no damage), read-out: Pre-emergence herbicidal activity (percentage phytotoxicity) ECHCG PRE
[13] = post-emergence, 360 h, POST-emergence, rate 250 g/ha, visual score 15 DAA (100%=total damage, 0%=no damage), read-out: Post-emergence herbicidal activity (percentage phytotoxicity) LOLPE POST
[14] = pre-emergence, 480 h, PRE-emergence, rate 250 g/ha, visual score 20 DAA (100%=total damage, 0%=no damage), read-out: Pre-emergence herbicidal activity (percentage phytotoxicity) LOLPE PRE
[15] = post-emergence, 360 h, POST-emergence, rate 250 g/ha, visual score 15 DAA (100%=total damage, 0%=no damage), read-out: Post-emergence herbicidal activity (percentage phytotoxicity) AVEFA POST
[16] = pre-emergence, 480 h, PRE-emergence, rate 250 g/ha, visual score 20 DAA (100%=total damage, 0%=no damage), read-out: Pre-emergence herbicidal activity (percentage phytotoxicity) AVEFA PRE
[17] = post-emergence, 360 h, POST-emergence, rate 250 g/ha, visual score 15 DAA (100%=total damage, 0%=no damage), read-out: Post-emergence herbicidal activity (percentage phytotoxicity) ALOMY POST
[18] = pre-emergence, 480 h, PRE-emergence, rate 250 g/ha, visual score 20 DAA (100%=total damage, 0%=no damage), read-out: Pre-emergence herbicidal activity (percentage phytotoxicity) ALOMY PRE
[19] = post-emergence, 360 h, 250 g/ha, post-emergence, 15 DAA, visual assessment (100%=total damage, 0%=no damage), read-out: Post-emergence herbicidal activity (percentage phytotoxicity) ECHCG POST
[20] = pre-emergence, 480 h, 250 g/ha, pre-emergence, 20 DAA, visual assessment (100%=total damage, 0%=no damage), read-out: Pre-emergence herbicidal activity (percentage phytotoxicity) ECHCG PRE
[21] = post-emergence, 360 h, 250 g/ha, post-emergence, 15 DAA, visual assessment (100%=total damage, 0%=no damage), read-out: Post-emergence herbicidal activity (percentage phytotoxicity) LOLPE POST
[22] = pre-emergence, 480 h, 250 g/ha, pre-emergence, 20 DAA, visual assessment (100%=total damage, 0%=no damage), read-out: Pre-emergence herbicidal activity (percentage phytotoxicity) LOLPE PRE
[23] = post-emergence, 360 h, 250 g/ha, post-emergence, 15 DAA, visual assessment (100%=total damage, 0%=no damage), read-out: Post-emergence herbicidal activity (percentage phytotoxicity) AVEFA POST
[24] = pre-emergence, 480 h, 250 g/ha, pre-emergence, 20 DAA, visual assessment (100%=total damage, 0%=no damage), read-out: Pre-emergence herbicidal activity (percentage phytotoxicity) AVEFA PRE
[25] = post-emergence, 360 h, 250 g/ha, post-emergence, 15 DAA, visual assessment (100%=total damage, 0%=no damage), read-out: Post-emergence herbicidal activity (percentage phytotoxicity) ALOMY POST
[26] = pre-emergence, 480 h, 250 g/ha, pre-emergence, 20 DAA, visual assessment (100%=total damage, 0%=no damage), read-out: Pre-emergence herbicidal activity (percentage phytotoxicity) ALOMY PRE
[27] = post-emergence, 360 h, Rate 250 g/ha, post-emergence, assessed visually 15 DAA, 100%=total damage, 0%=no damage, read-out: Post-emergence herbicidal activity (percentage phytotoxicity) ECHCG POST
[28] = pre-emergence, 480 h, Rate 250 g/ha, pre-emergence, assessed visually 20 DAA, 100%=total damage, 0%=no damage, read-out: Pre-emergence herbicidal activity (percentage phytotoxicity) ECHCG PRE
[29] = post-emergence, 360 h, Rate 250 g/ha, post-emergence, assessed visually 15 DAA, 100%=total damage, 0%=no damage, read-out: Post-emergence herbicidal activity (percentage phytotoxicity) LOLPE POST
[30] = pre-emergence, 480 h, Rate 250 g/ha, pre-emergence, assessed visually 20 DAA, 100%=total damage, 0%=no damage, read-out: Pre-emergence herbicidal activity (percentage phytotoxicity) LOLPE PRE
[31] = post-emergence, 360 h, Rate 250 g/ha, post-emergence, assessed visually 15 DAA, 100%=total damage, 0%=no damage, read-out: Post-emergence herbicidal activity (percentage phytotoxicity) AVEFA POST
[32] = pre-emergence, 480 h, Rate 250 g/ha, pre-emergence, assessed visually 20 DAA, 100%=total damage, 0%=no damage, read-out: Pre-emergence herbicidal activity (percentage phytotoxicity) AVEFA PRE
[33] = post-emergence, 360 h, Rate 250 g/ha, post-emergence, assessed visually 15 DAA, 100%=total damage, 0%=no damage, read-out: Post-emergence herbicidal activity (percentage phytotoxicity) ALOMY POST
[34] = pre-emergence, 480 h, Rate 250 g/ha, pre-emergence, assessed visually 20 DAA, 100%=total damage, 0%=no damage, read-out: Pre-emergence herbicidal activity (percentage phytotoxicity) ALOMY PRE

Structure (SMILES)	pest or weed control at 250 g/ha [1, 3] [%]	pest or weed control at 250 g/ha [1, 4] [%]	pest or weed control at 250 g/ha (Lolium perenne (LOLPE); [5]) [%]	pest or weed control at 250 g/ha (Lolium perenne (LOLPE); [6]) [%]	pest or weed control at 250 g/ha (Avena fatua (AVEFA); [7]) [%]	pest or weed control at 250 g/ha (Avena fatua (AVEFA); [8]) [%]	pest or weed control at 250 g/ha [2, 9] [%]	pest or weed control at 250 g/ha [2, 10] [%]	pest or weed control at 250 g/ha [1, 11] [%]	pest or weed control at 250 g/ha [1, 12] [%]	pest or weed control at 250 g/ha (Lolium perenne (LOLPE); [13]) [%]	pest or weed control at 250 g/ha (Lolium perenne (LOLPE); [14]) [%]	pest or weed control at 250 g/ha (Avena fatua (AVEFA); [15]) [%]	pest or weed control at 250 g/ha (Avena fatua (AVEFA); [16]) [%]	pest or weed control at 250 g/ha [2, 17] [%]	pest or weed control at 250 g/ha [2, 18] [%]	also measured
Cc1cc(-c2ncc(Cl)cn2)cc(C)c1C1=C(OC(=O)N2CCCC2)CC(CC(=O)NC(C)(C)C)C1=O (stereo not drawn) [Compound P8]	90	70	70	50	80	10	70	30	–	–	–	–	–	–	–	–	–
CCNC(=O)CC1CC(=O)C(c2c(C)cc(-c3ccc(Br)cn3)cc2C)C1=O (stereo not drawn) [Compound B323]	–	–	–	–	–	–	–	–	100	100	100	100	100	90	100	100	–
COC(=O)c1cccc(CNC(=O)CC2CC(=O)C(c3c(C)cc(C)cc3C)C2=O)c1 (stereo not drawn) [Compound B10]	–	–	–	–	–	–	–	–	–	–	–	–	–	–	–	–	pest or weed control at 250 g/ha [1, 19]: 70%; pest or weed control at 250 g/ha [1, 20]: 0%; pest or weed control at 250 g/ha (Lolium perenne (LOLPE); [21]): 30%; pest or weed control at 250 g/ha (Lolium perenne (LOLPE); [22]): 0%; pest or weed control at 250 g/ha (Avena fatua (AVEFA); [23]): 70%; pest or weed control at 250 g/ha (Avena fatua (AVEFA); [24]): 0%; pest or weed control at 250 g/ha [2, 25]: 30%; pest or weed control at 250 g/ha [2, 26]: 0%
Cc1cc(-c2ncc(F)cc2F)cc(C)c1C1C(=O)CC(CC(=O)NO)C1=O (stereo not drawn) [Compound B403]	100	0	80	20	100	50	90	60	–	–	–	–	–	–	–	–	–
CC#Cc1cc(C)c(C2C(=O)CC(CC(=O)NC3CCCC3)C2=O)c(C)c1 (stereo not drawn) [Compound A62]	–	–	–	–	–	–	–	–	–	–	–	–	–	–	–	–	pest or weed control at 250 g/ha [1, 27]: 100%; pest or weed control at 250 g/ha [1, 28]: 100%; pest or weed control at 250 g/ha (Lolium perenne (LOLPE); [29]): 60%; pest or weed control at 250 g/ha (Lolium perenne (LOLPE); [30]): 100%; pest or weed control at 250 g/ha (Avena fatua (AVEFA); [31]): 90%; pest or weed control at 250 g/ha (Avena fatua (AVEFA); [32]): 90%; pest or weed control at 250 g/ha [2, 33]: 90%; pest or weed control at 250 g/ha [2, 34]: 100%
Cc1cc(-c2ccc(Cl)cn2)cc(C)c1C1C(=O)CC(CC(=O)NCc2cccc(F)c2)C1=O (stereo not drawn) [Compound B357]	100	100	90	100	100	90	90	80	–	–	–	–	–	–	–	–	–
Cc1cc(-c2ncc(Cl)cn2)cc(C)c1C1C(=O)CC(CC(=O)NC/C=C/Cl)C1=O (stereo not drawn) [Compound B352]	100	100	100	90	90	90	100	100	–	–	–	–	–	–	–	–	–
Cc1cc(C)c(C2C(=O)CC(C(C)C(=O)NCc3cccs3)C2=O)c(C)c1 (stereo not drawn) [Compound A165]	–	–	–	–	–	–	–	–	–	–	–	–	–	–	–	–	pest or weed control at 250 g/ha [1, 27]: 90%; pest or weed control at 250 g/ha [1, 28]: 100%; pest or weed control at 250 g/ha (Lolium perenne (LOLPE); [29]): 80%; pest or weed control at 250 g/ha (Lolium perenne (LOLPE); [30]): 70%; pest or weed control at 250 g/ha (Avena fatua (AVEFA); [31]): 80%; pest or weed control at 250 g/ha (Avena fatua (AVEFA); [32]): 0%; pest or weed control at 250 g/ha [2, 33]: 60%; pest or weed control at 250 g/ha [2, 34]: 60%
CCc1cc(C)cc(C)c1C1C(=O)CC(CC(=O)NC(C)(C)C)C1=O (stereo not drawn) [Compound B170]	–	–	–	–	–	–	–	–	100	100	100	100	90	90	100	100	–
Cc1cc(-c2ncc(Cl)cc2F)cc(C)c1C1C(=O)CC(CC(=O)NC(C)C)C1=O (stereo not drawn) [Compound B118]	–	–	–	–	–	–	–	–	–	–	–	–	–	–	–	–	pest or weed control at 250 g/ha [1, 19]: 100%; pest or weed control at 250 g/ha [1, 20]: 100%; pest or weed control at 250 g/ha (Lolium perenne (LOLPE); [21]): 100%; pest or weed control at 250 g/ha (Lolium perenne (LOLPE); [22]): 100%; pest or weed control at 250 g/ha (Avena fatua (AVEFA); [23]): 100%; pest or weed control at 250 g/ha (Avena fatua (AVEFA); [24]): 90%; pest or weed control at 250 g/ha [2, 25]: 100%; pest or weed control at 250 g/ha [2, 26]: 100%
Cc1cc(-c2ccc(C#N)cn2)cc(C)c1C1C(=O)CC(CC(=O)NCc2cccc(Cl)c2)C1=O (stereo not drawn) [Compound B295]	–	–	–	–	–	–	–	–	100	90	90	90	100	60	90	80	–
CCNC(=O)CC1CC(=O)C(c2c(C)cc(-c3ccc(C#N)cn3)cc2C)C1=O (stereo not drawn) [Compound B318]	–	–	–	–	–	–	–	–	100	90	90	100	100	90	90	90	–
